Drawing on US11820766B2, “Monoacylglycerol lipase modulators” (Janssen Pharmaceutica NV, priority 2018, dated 2023), this text covers IC50 for 16 molecules.

This assay concerns the target T1, human MGL from HeLa cells (Homo sapiens, UniProt Q99685).
T1 construct: combining endogenously expressed MGL from HeLa cells with test compounds; endogenous in cells; host or cells: HeLa cells / cell homogenates
T1 sequence (Q99685 1-303): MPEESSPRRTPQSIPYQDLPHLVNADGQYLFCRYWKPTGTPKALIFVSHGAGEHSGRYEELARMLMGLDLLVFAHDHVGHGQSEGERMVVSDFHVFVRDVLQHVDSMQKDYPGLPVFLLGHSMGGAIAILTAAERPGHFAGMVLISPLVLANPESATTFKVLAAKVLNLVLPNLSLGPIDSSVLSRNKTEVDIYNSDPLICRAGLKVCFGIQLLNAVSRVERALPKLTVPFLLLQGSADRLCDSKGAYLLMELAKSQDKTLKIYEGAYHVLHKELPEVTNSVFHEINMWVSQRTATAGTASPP
Description: In vitro MGL activity assay: [glycerol-1,3-3H]-oleyl glycerol cleavage by MGL from HeLa cells. Conditions: 300 nM [Glycerol-1,3-3H]-oleyl glycerol, one hour. Format: biochemical. The source says: MGL is the predominant hydrolase in HeLa cells/cell homogenates.
As for `C[C@H]1c2nn(C)c(-c3cc(F)c(F)c(F)c3)c2CCN1C(=O)c1cn(-c2ccccc2)cn1` [Example 601, [(7S)-2,7-Dimethyl-3-(3,4,5-trifluorophenyl)-5,7-dihydro-4H-pyrazolo[3,4-c]pyridin-6-yl]-(1-phenylimidazol-4-yl)methanone], 252 nM corresponded to half-maximal inhibition (IC50).

The molecule `C[C@H]1c2nn(C)c(-c3cc(F)c(F)c(F)c3)c2CCN1C(=O)c1cnc(-c2ccccn2)n1C` [Example 602, [(7S)-2,7-Dimethyl-3-(3,4,5-trifluorophenyl)-5,7-dihydro-4H-pyrazolo[3,4-c]pyridin-6-yl]-[3-methyl-2-(2-pyridyl)imidazol-4-yl]methanone] returned an IC50 of 460 nM.

Turning to `C[C@H]1c2nn(C)c(-c3cc(F)c(F)c(F)c3)c2CCN1C(=O)c1c(F)cccc1-n1cccn1` [Example 603, [(7S)-2,7-Dimethyl-3-(3,4,5-trifluorophenyl)-5,7-dihydro-4H-pyrazolo[3,4-c]pyridin-6-yl]-(2-fluoro-6-pyrazol-1-yl-phenyl)methanone], the midpoint of inhibition, the IC50, lay at 114 nM. Against the preceding molecule, the IC50 is about 4-fold lower.

`C[C@H]1c2nn(C)c(-c3cc(F)c(F)c(F)c3)c2CCN1C(=O)c1cccc2c1OC1(CC1)CN2` [Example 604, [(7S)-2,7-Dimethyl-3-(3,4,5-trifluorophenyl)-5,7-dihydro-4H-pyrazolo[3,4-c]pyridin-6-yl]-spiro[3,4-dihydro-1,4-benzoxazine-2,1′-cyclopropane]-8-yl-methanone]: the concentration for half-maximal inhibition (IC50) worked out at 102 nM.

On to `C[C@H]1c2nn(C)c(-c3cc(F)c(F)c(F)c3)c2CCN1C(=O)c1ccnc2[nH]cc(F)c12` [Example 605, [(7S)-2,7-Dimethyl-3-(3,4,5-trifluorophenyl)-5,7-dihydro-4H-pyrazolo[3,4-c]pyridin-6-yl]-(3-fluoro-1H-pyrrolo[2,3-b]pyridin-4-yl)methanone], for which the IC50 was 1.1 nM.

On to `C[C@H]1c2nn(C)c(-c3cc(F)c(F)c(F)c3)c2CCN1C(=O)c1ncnc2c1ncn2C` [Example 606, [(7S)-2,7-Dimethyl-3-(3,4,5-trifluorophenyl)-5,7-dihydro-4H-pyrazolo[3,4-c]pyridin-6-yl]-(9-methylpurin-6-yl)methanone], for which the IC50 came out at 724 nM.

`COc1cncc(F)c1C(=O)N1CCc2c(nn(C)c2-c2cc(F)c(F)c(F)c2)[C@@H]1C` [Example 607, [(7S)-2,7-Dimethyl-3-(3,4,5-trifluorophenyl)-5,7-dihydro-4H-pyrazolo[3,4-c]pyridin-6-yl]-(3-fluoro-5-methoxy-4-pyridyl)methanone] showed an IC50 of 18.2 nM.

On to `COc1ccnc(C(=O)N2CCc3c(nn(C)c3-c3cc(F)cc(C(F)F)c3)[C@@H]2C)c1Cl` [Example 608, (3-Chloro-4-methoxy-2-pyridyl)-[(7S)-3-[3-(difluoromethyl)-5-fluoro-phenyl]-2,7-dimethyl-5,7-dihydro-4H-pyrazolo[3,4-c]pyridin-6-yl]methanone], for which the midpoint of inhibition, the IC50, lay at 21.7 nM.

`COc1nccc(C(=O)N2CCc3c(nn(C)c3-c3cc(F)cc(C(F)F)c3)[C@@H]2C)c1C` [Example 609, [(7S)-3-[3-(Difluoromethyl)-5-fluoro-phenyl]-2,7-dimethyl-5,7-dihydro-4H-pyrazolo[3,4-c]pyridin-6-yl]-(2-methoxy-3-methyl-4-pyridyl)methanone] yielded an IC50 of 22.7 nM. This IC50 and that of the molecule before are within 1.5-fold of each other.

On to `C[C@H]1c2nn(C)c(-c3cc(F)cc(C(F)F)c3)c2CCN1C(=O)c1ccc2c(c1)OCCC2` [Example 610, Chroman-7-yl-[(7S)-3-[3-(difluoromethyl)-5-fluoro-phenyl]-2,7-dimethyl-5,7-dihydro-4H-pyrazolo[3,4-c]pyridin-6-yl]methanone], for which the IC50 was found to be 29.4 nM.

With `COc1cc(F)cc(-c2c3c(nn2C)[C@H](C)N(C(=O)c2ccc4c(c2)OCCC4)CC3)c1` [Example 611, Chroman-7-yl-[(7S)-3-(3-fluoro-5-methoxy-phenyl)-2,7-dimethyl-5,7-dihydro-4H-pyrazolo[3,4-c]pyridin-6-yl]methanone], the IC50 was determined as 25.6 nM.

In the case of `COc1ccnc(C(=O)N2CCc3c(nn(C)c3-c3cc(F)cc(OC(F)F)c3)[C@@H]2C)c1Cl` [Example 612, (3-Chloro-4-methoxy-2-pyridyl)-[(7S)-3-[3-(difluoromethoxy)-5-fluoro-phenyl]-2,7-dimethyl-5,7-dihydro-4H-pyrazolo[3,4-c]pyridin-6-yl]methanone], the IC50 is 29.8 nM. This IC50 and that of the molecule before are within 1.5-fold of each other.

As to `COc1cc(F)cc(-c2c3c(nn2C)[C@H](C)N(C(=O)c2ccnc(OC)c2C)CC3)c1` [Example 613, [(7S)-3-(3-Fluoro-5-methoxy-phenyl)-2,7-dimethyl-5,7-dihydro-4H-pyrazolo[3,4-c]pyridin-6-yl]-(2-methoxy-3-methyl-4-pyridyl)methanone], 27.8 nM corresponded to half-maximal inhibition (IC50). The IC50 values of the last two molecules are within 1.5-fold of each other.

Consider `COc1cc(F)cc(-c2c3c(nn2C)[C@H](C)N(C(=O)c2nccc(OC)c2Cl)CC3)c1` [Example 614, (3-Chloro-4-methoxy-2-pyridyl)-[(7S)-3-(3-fluoro-5-methoxy-phenyl)-2,7-dimethyl-5,7-dihydro-4H-pyrazolo[3,4-c]pyridin-6-yl]methanone], for which the half-inhibitory concentration (IC50) amounted to 35.9 nM. The IC50 values of the last two molecules are within 1.5-fold of each other.

In turn, `Cc1nc(C(=O)N2CCc3c(nn(C)c3-c3cc(F)c(F)c(F)c3)[C@@H]2C)c2cnn(C)c2n1` [Example 617, (S)-(1,6-Dimethyl-1H-pyrazolo[3,4-d]pyrimidin-4-yl)(2,7-dimethyl-3-(3,4,5-trifluorophenyl)-2,4,5,7-tetrahydro-6H-pyrazolo[3,4-c]pyridin-6-yl)methanone] displayed an IC50 of 32.4 nM.

`Cc1nc2ccc(C3CC3)cn2c1C(=O)N1CCc2c(nn(C)c2-c2cc(F)c(F)c(F)c2)[C@@H]1C` [Example 618] had an IC50 of 18.2 nM.

In general, IC50 refers to the concentration needed to halve the response being measured. The low end stands for greater potency in that assay, the high end for weaker potency in that assay.
